Article PMC8580996, “2-Oxoglutarate derivatives can selectively enhance or inhibit the activity of human oxygenases” (Nature Communications, 2021)
“And” between values parts separate entries of the source, which are not always exact repeats. Equal entries are not always repeated. Where two headings read alike, the source gives them in different places.

Experiments:
FIH [1] = target: T1, FIH (Homo sapiens, UniProt Q9NWT6); assay: SPE-MS FIH turnover (cosubstrate) assay in the absence of 2OG; format: biochemical; conditions: 330 μM 2OG or 2OG derivative, no 2OG, t = 15 min
Method: The ability of 35 synthetic C3/C4-substituted 2OG derivatives, which were prepared via a reported procedure (Supplementary Fig. 1 and Supplementary Methods)[21], to sustain catalysis by purified recombinant FIH in the absence of 2OG was examined using an assay directly monitoring substrate depletion and product formation (i.e., a +16 Da mass shift) by solid-phase extraction (SPE) coupled to mass spectrometry (SPE-MS)[44],[45]. […] (i.e. CA1–20)[47], were used as FIH substrates to test for potential substrate-dependent differences in terms of cosubstrate analog selectivity.
Assay samples were aspirated under vacuum for 0.6 s and loaded onto a C4 SPE cartridge. After loading, the C4 SPE cartridge was washed with 0.1%v/v aqueous formic acid to remove non-volatile buffer salts (5.5 s, 1.5 mL/min). […] The mass spectrometer was operated using the MassHunter Workstation B.08.00 software (Agilent), the mass spectrometer parameters were: capillary voltage (4000 V), nozzle voltage (1000 V), fragmentor voltage (365 V), gas temperature (280 °C), gas flow (13 L/min), sheath gas temperature (350 °C), sheath gas flow (12 L/min). […] Data were exported into Microsoft Excel and used to calculate the % conversion of the hydroxylation reaction using the equation: % conversion = 100 × (integral product peptide)/(integral substrate peptide+integral product peptide). […] Z′-factors were calculated according to the cited literature using Microsoft Excel (Supplementary Fig. 26)[83].

FIH [2] = target: T1, FIH; assay: SPE-MS FIH inhibition assay; format: biochemical; on IC50 FIH: 0.15 µM FIH
Method: FIH inhibition assays were performed as described, using cosubstrate/cofactor stock solutions (L-ascorbic acid, LAA: 50 mM in MQ-grade water; 2-oxoglutarate, 2OG: 10 mM in MQ-grade water; ammonium iron(II) sulfate hexahydrate, FAS, (NH4)2Fe(SO4)2·6H2O: 400 mM in 20 mM HCl diluted to 1 mM in MQ-grade water), which were freshly prepared from commercially-sourced solids (Sigma Aldrich).
Dimethyl sulfoxide (DMSO) solutions of the 2OG derivatives were dry dispensed across 384-well polypropylene assay plates (Greiner) in an approximately threefold and 11-point dilution series (100 μM top concentration; the final DMSO assay concentration was kept constant at 0.5%v/v) using an ECHO 550 acoustic dispenser (Labcyte). […] Each reaction was performed in technical duplicates in adjacent wells of the assay plates; additionally, assays were performed in two independent duplicates on different days using different inhibitor solutions.
The Enzyme Mixture (25 μL/well), containing 0.3 μM His6-FIH in buffer (50 mM Tris, 50 mM NaCl, pH 7.5), was dispensed across the inhibitor-containing 384-well assay plates with a multidrop dispenser (ThermoFischer Scientific) at 20 °C under an ambient atmosphere. The plates were subsequently centrifuged (1000 rpm, 15 s) and incubated for 15 min at 20 °C. The Substrate Mixture (25 μL/well), containing 10.0 μM HIF-1α788–822[37] substrate, 200 μM LAA, 20.0 μM 2OG, and 20.0 μM FAS in buffer (50 mM Tris, 50 mM NaCl, pH 7.5), was added using the multidrop dispenser. The plates were centrifuged (1000 rpm, 15 s) and after incubating for 15 min, the enzyme reaction was stopped by the addition of 10%v/v aqueous formic acid (5 μL/well). The plates were then centrifuged (1000 rpm, 30 s) and analyzed by MS.
MS-analyses were performed using a RapidFire RF 365 high-throughput sampling robot (Agilent) attached to an iFunnel Agilent 6550 accurate-mass quadrupole time-of-flight mass spectrometer operated in the positive ionization mode. Assay samples were aspirated under vacuum for 0.6 s and loaded onto a C4 SPE cartridge. After loading, the C4 SPE cartridge was washed with 0.1%v/v aqueous formic acid to remove non-volatile buffer salts (5.5 s, 1.5 mL/min). […] The mass spectrometer was operated using the MassHunter Workstation B.08.00 software (Agilent), the mass spectrometer parameters were: capillary voltage (4000 V), nozzle voltage (1000 V), fragmentor voltage (365 V), gas temperature (280 °C), gas flow (13 L/min), sheath gas temperature (350 °C), sheath gas flow (12 L/min). The m/z + 2 (for CA1–20) or +3 (for HIF-1α788–822) charge states of the peptide (substrate) and the hydroxylated peptide (product) were used to extract ion chromatogram data, peak areas were integrated using RapidFire Integrator 4.3.0 (Agilent). Data were exported into Microsoft Excel and used to calculate the % conversion of the hydroxylation reaction using the equation: % conversion = 100 × (integral product peptide)/(integral substrate peptide+integral product peptide). […] Z′-factors were calculated according to the cited literature using Microsoft Excel (Supplementary Fig. 26)[83].
SPE-MS FIH inhibition assays were performed as described in the Methods section.
Tris, 50 mM NaCl, pH 7.5, 20 °C). […]

AspH [3] = target: T2, AspH (Homo sapiens, UniProt Q12797); set-up: method as in PMID 34163896; conditions: hFX-CP101–119 substrate, 330 μM 2OG or 2OG derivative, t = 15 min; cited from earlier work
T2 construct: the tetratricopeptide repeat domain (His6-AspH315-758), was produced and purified as previously reported; made in house
T2 sequence (Q12797 315-758): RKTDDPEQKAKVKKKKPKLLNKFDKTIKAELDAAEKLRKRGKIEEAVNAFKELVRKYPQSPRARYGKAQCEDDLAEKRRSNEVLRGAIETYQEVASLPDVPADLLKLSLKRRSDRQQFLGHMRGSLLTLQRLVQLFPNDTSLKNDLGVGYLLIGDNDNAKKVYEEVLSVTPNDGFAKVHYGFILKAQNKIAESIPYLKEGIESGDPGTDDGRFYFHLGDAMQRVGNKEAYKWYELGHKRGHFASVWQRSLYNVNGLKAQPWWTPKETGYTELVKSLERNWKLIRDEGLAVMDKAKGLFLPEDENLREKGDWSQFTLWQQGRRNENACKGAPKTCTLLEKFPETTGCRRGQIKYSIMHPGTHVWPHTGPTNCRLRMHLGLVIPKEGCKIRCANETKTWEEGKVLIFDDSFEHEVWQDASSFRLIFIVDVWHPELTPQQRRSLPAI

AspH [4] = target: T2, AspH; conditions: cited from earlier work
[5] = […] FIH, 5.0 μM HIF-1α788-822, 10 μM 2OG, mean of two runs
[6] = 0.05 μM AspH, 1.0 μM hFX-CP101-119, 3.0 μM 2OG, ref 21 (supplementary ref 1)
[7] = source data of Table 3, single independent replicates, read-out: FIH IC50, independent replicate
[8] = […] FIH, 5.0 μM HIF-1α788-822, 10 μM 2OG, mean of two runs, read-out: IC50 FIH

T1 sequence (Q9NWT6 whole entry): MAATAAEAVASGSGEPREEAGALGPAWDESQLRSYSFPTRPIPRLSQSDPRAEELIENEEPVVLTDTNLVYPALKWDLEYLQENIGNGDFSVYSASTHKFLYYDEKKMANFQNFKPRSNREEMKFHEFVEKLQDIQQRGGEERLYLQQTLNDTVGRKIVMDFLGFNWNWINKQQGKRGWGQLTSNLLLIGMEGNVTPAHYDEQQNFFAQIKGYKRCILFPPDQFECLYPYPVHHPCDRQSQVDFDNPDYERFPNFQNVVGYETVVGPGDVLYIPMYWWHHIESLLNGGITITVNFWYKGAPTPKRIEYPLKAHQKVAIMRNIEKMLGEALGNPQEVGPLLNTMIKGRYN

SMILES	FIH activity, %-substrate conversion (FIH [1]; CA1–20 substrate)	FIH activity, %-substrate conversion (FIH [1]; HIF-1α788–822 substrate)	IC50 FIH (FIH [2]; [5])	IC50 (FIH [2]; [7])	IC50 (FIH [2]; [8]) [µM]	selectivity of AspH over FIH inhibition as judged by IC50-values (FIH [2])	FIH IC50, independent replicate (FIH [2]; source data of Table 3, single independent replicates)	AspH activity, %-substrate conversion (AspH [3]) [%]	IC50 (AspH [4]; NOFD control, supplementary ref 13) [µM]	IC50 (AspH [4]; [6]) [µM]	IC50 AspH (AspH [4]; [6])
O=C(O)C(=O)[C@@H]1[C@@H](C(=O)O)[C@@H]2C=C[C@H]1C2 (racemic) [compound 24]	^c<1% ^d<1%	^c<1% ^d<1%	inactive					<1			
O=C(O)C(=O)N[C@H](Cc1ccccc1)C(=O)O [NOFD, N-oxalyl-D-phenylalanine, reference compound]									15.5		
O=C(O)CC(Cc1ccc(OC(F)(F)F)cc1)C(=O)C(=O)O (stereo not shown) [compound 8]	^c<1% ^d<1%	^c<1% ^d<1%			12.7			<1			
COc1ccc(CC(CC(=O)O)C(=O)C(=O)O)cc1 (stereo not shown) [compound 9]	^c<1% ^d<1%	^c<1% ^d<1%			3.6			<1			
Cc1cc(C)cc(CC(CC(=O)O)C(=O)C(=O)O)c1 (stereo not shown) [compound 10]	^c<1% ^d<1%	^c<1% ^d<1%	inactive					<1			
CC1(C)c2ccccc2-c2ccc(CC(CC(=O)O)C(=O)C(=O)O)cc21 (stereo not shown) [compound 11, 3-((9,9-dimethyl-9H-fluoren-2-yl)methyl)-2OG]	^c<1% ^d<1%	^c<1% ^d<1%		1.83 µM and 1.86 µM				<1		4.3	
CC(C)CC(CC(=O)C(=O)O)C(=O)O (stereo not shown) [compound 16, 4-isobutyl-2OG]	~3%	< 1%				~ 70 fold		<1		~0.5	
CC(C)(C)CCC(CC(=O)C(=O)O)C(=O)O (stereo not shown) [compound 17]	^c<1% ^d<1%	^c<1% ^d<1%			38.9			<1			
O=C(O)C(=O)CC(Cc1ccccc1)C(=O)O (stereo not shown) [compound 19, 4-benzyl-2OG]	^c<1% ^d<1%	^c<1% ^d<1%		3.42 µM and 3.64 µM				<1			
O=C(O)C(=O)CC(Cc1ccc2ccccc2c1)C(=O)O (stereo not shown) [compound 20]	^c<1% ^d<1%	^c<1% ^d<1%			2.5			<1			
O=C(O)C(=O)C12CCC(C(=O)O)(CC1)CC2 [compound 25]	^c<1% ^d<1%	^c<1% ^d<1%	inactive					~8			inactive
O=C(O)C(=O)c1ccc(C(=O)O)s1 [compound 35]	^c<1% ^d<1%	^c<1% ^d<1%	inactive				not inhibiting	~15			

Further lines, with some results ahead:

FIH activity, %-substrate conversion (FIH [1]; CA1–20 substrate)	FIH activity, %-substrate conversion (FIH [1]; HIF-1α788–822 substrate)	IC50 FIH (FIH [2]; [5])	IC50 (FIH [2]; [7])	IC50 (FIH [2]; [8]) [µM]	selectivity of AspH over FIH inhibition as judged by IC50-values (FIH [2])	FIH IC50, independent replicate (FIH [2]; source data of Table 3, single independent replicates)	SMILES	AspH activity, %-substrate conversion (AspH [3]) [%]	IC50 (AspH [4]; NOFD control, supplementary ref 13) [µM]	IC50 (AspH [4]; [6]) [µM]	IC50 AspH (AspH [4]; [6])
~20%	~2%		4.54 µM and 4.52 µM				CCC(CC(=O)O)C(=O)C(=O)O (stereo not shown) [compound 2, 3-ethyl 2OG]	<1		~1.2	
~10%	< 1%		2.64 µM and 2.68 µM				CCCC(CC(=O)O)C(=O)C(=O)O (stereo not shown) [compound 3, 3-propyl-2OG]	<1		~5.7	
^c<1% ^d<1%	^c<1% ^d<1%			31			CC(C)(C)CCC(CC(=O)O)C(=O)C(=O)O (stereo not shown) [compound 4]	<1			
^c<1% ^d<1%	^c<1% ^d<1%			5.7			O=C(O)CC(CCCc1ccccc1)C(=O)C(=O)O (stereo not shown) [compound 5]	<1			
^c<1% ^d<1%	^c<1% ^d<1%		5.76 µM and 7.01 µM	6.4			O=C(O)CC(Cc1ccccc1)C(=O)C(=O)O (stereo not shown) [compound 6]	<1			
^c<1% ^d<1%	^c<1% ^d<1%			7.5			O=C(O)CC(Cc1ccc(F)cc1)C(=O)C(=O)O (stereo not shown) [compound 7]	<1			
~70%	~5%		15.2 µM and 14.3 µM	14.8			CCCC(CC(=O)C(=O)O)C(=O)O (stereo not shown) [compound 15, 4-propyl-2OG]	<1			
^c<1% ^d<1%	^c<1% ^d<1%			19.4			CC1(C)C(C(=O)O)C1C(=O)C(=O)O (stereo not shown) [compound 21]	<1			
^c<1% ^d<1%	^c<1% ^d<1%	inactive					O=C(O)C(=O)C1(C(=O)O)CC1 [compound 23]	<1			
^c<1% ^d<1%	^c<1% ^d<1%	inactive					O=C(O)C(=O)c1ccccc1C(=O)O [compound 26]	<1			inactive
